In patent US10479780B2, “Aminopyrazole derivatives” (Chugai Seiyaku Kabushiki Kaisha, priority 2015, dated 2019):

Assays:
Assay type in all cases: biochemical
[1] = biological target: T1, human Yes1 enzyme (Homo sapiens, UniProt P07947); test: Yes1 enzyme inhibitory activity (time-resolved fluorometry, biotinylated peptide phosphorylation); conditions: read-out: YES_IC50
T1 construct: made in house
Outline: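 Inhibition was expressed against a compound-free control to give IC50, using TR-FRET read-out (Eu-cryptate anti-pTyr antibody, streptavidin-XL665).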

[2] = biological target: T2, human Lck enzyme (Homo sapiens, UniProt P06239); test: Lck enzyme inhibitory activity (time-resolved fluorometry, biotinylated peptide phosphorylation); conditions: read-out: LCK_IC50
T2 construct: purchased Carna Biosciences, Inc. 08-170
Outline: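 Readout pairs a europium cryptate-labelled anti-phosphotyrosine antibody with XL665-streptavidin, measured by time-resolved fluorescence. IC50 derived from percent inhibition against untreated controls.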

[3] = biological target: T3, human Src enzyme (Homo sapiens, UniProt P12931); test: Src enzyme inhibitory activity (time-resolved fluorometry, biotinylated peptide phosphorylation); conditions: read-out: SRC_IC50
T3 construct: purchased Carna Biosciences, Inc. 08-173
Outline: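 Compounds were tested for blocking tyrosine phosphorylation of a biotinylated peptide substrate by recombinant human Src. Phosphorylated product was quantified by time-resolved fluorometry using europium cryptate and XL665 conjugates, and IC50 was calculated against the compound-free control.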

T1 sequence (P07947 whole entry): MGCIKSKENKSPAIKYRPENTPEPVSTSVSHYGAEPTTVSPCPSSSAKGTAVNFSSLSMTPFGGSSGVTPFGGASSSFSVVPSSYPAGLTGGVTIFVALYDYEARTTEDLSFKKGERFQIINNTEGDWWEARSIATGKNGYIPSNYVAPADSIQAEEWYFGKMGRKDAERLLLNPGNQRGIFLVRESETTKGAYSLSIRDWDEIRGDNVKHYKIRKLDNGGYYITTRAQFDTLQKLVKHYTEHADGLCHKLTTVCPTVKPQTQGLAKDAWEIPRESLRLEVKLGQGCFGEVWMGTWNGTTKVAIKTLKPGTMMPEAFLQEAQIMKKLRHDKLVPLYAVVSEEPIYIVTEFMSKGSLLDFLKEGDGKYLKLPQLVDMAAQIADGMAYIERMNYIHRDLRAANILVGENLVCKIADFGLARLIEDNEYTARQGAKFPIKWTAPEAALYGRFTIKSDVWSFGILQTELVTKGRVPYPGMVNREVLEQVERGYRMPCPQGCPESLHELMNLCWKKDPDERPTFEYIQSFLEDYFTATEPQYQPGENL
T3 sequence (P12931 whole entry): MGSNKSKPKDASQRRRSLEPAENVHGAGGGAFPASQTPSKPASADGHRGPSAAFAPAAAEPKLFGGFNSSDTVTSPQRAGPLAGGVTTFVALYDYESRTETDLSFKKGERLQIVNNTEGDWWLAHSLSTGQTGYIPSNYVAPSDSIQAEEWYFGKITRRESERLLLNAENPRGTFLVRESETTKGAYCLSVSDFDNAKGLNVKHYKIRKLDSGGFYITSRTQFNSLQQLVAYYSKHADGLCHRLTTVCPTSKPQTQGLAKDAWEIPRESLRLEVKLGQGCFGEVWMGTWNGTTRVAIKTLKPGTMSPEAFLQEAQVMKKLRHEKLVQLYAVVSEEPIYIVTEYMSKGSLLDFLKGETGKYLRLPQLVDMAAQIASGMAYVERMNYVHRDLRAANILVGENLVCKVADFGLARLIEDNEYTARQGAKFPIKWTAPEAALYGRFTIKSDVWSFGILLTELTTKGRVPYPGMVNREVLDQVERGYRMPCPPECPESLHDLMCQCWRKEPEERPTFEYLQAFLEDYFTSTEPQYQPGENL
T2 sequence (P06239 whole entry): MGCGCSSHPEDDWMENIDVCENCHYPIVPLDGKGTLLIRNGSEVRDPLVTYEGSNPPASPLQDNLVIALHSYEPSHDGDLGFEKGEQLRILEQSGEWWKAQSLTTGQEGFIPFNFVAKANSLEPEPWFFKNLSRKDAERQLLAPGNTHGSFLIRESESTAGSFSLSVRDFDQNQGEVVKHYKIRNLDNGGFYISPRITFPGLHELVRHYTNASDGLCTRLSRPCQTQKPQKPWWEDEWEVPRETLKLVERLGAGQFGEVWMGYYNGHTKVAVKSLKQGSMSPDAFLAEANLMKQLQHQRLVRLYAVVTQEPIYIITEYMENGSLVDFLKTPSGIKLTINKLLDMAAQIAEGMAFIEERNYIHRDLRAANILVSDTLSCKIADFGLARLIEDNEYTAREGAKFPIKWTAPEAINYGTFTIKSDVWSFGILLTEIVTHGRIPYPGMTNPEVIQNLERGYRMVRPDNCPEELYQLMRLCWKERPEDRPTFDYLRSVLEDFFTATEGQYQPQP

IC50 [1] | IC50 [2] | IC50 [3] | Structure (SMILES)
3.3 nM | 43 nM | 56 nM | Cc1cc(Oc2c(F)cccc2F)ncc1-n1ncc(C(=O)c2cc3cc(F)c(NS(=O)(=O)C4CCOCC4)cc3[nH]2)c1N [Example 5-1-381, N-[2-[5-amino-1-[6-(2,6-difluorophenoxy)-4-methylpyridin-3-yl]pyrazole-4-carbonyl]-5-fluoro-1H-indol-6-yl]oxane-4-sulfonamide]
9.2 nM | 270 nM | 630 nM | Cc1cc(Oc2c(F)cccc2F)ncc1-n1ncc(C(=O)c2cc3cc(OCC(F)F)c(NS(=O)(=O)c4cccc(Cl)c4)cc3[nH]2)c1N [Example 5-1-383, N-[2-[5-amino-1-[6-(2,6-difluorophenoxy)-4-methylpyridin-3-yl]pyrazole-4-carbonyl]-5-(2,2-difluoroethoxy)-1H-indol-6-yl]-3-chlorobenzenesulfonamide]
2.4 nM | 44 nM | 90 nM | Cc1cc(Oc2c(F)cccc2F)ncc1-n1ncc(C(=O)c2cc3cc(OCC(F)F)c(NS(=O)(=O)c4cccnc4)cc3[nH]2)c1N [Example 5-1-384, N-[2-[5-amino-1-[6-(2,6-difluorophenoxy)-4-methylpyridin-3-yl]pyrazole-4-carbonyl]-5-(2,2-difluoroethoxy)-1H-indol-6-yl]pyridine-3-sulfonamide]
4.2 nM | 47 nM | 220 nM | Cc1cc(Oc2c(F)cccc2F)ncc1-n1ncc(C(=O)c2cc3cc(OC4CCN(C5CS(=O)(=O)C5)CC4)c(-c4ccccc4C(F)(F)F)cc3[nH]2)c1N [Example 5-1-388, [5-amino-1-[6-(2,6-difluorophenoxy)-4-methylpyridin-3-yl]pyrazol-4-yl]-[5-[1-(1,1-dioxothietan-3-yl)piperidin-4-yl]oxy-6-[2-(trifluoromethyl)phenyl]-1H-indol-2-yl] methanone]
1.4 nM | 18 nM | 24 nM | Cc1cc(Oc2ccccc2F)ccc1-n1ncc(C(=O)c2cc3cc(F)c(NS(=O)(=O)C4CCOCC4)cc3[nH]2)c1N [Example 5-1-389, N-[2-[5-amino-1-[4-(2-fluorophenoxy)-2-methylphenyl]pyrazole-4-carbonyl]-5-fluoro-1H-indol-6-yl]oxane-4-sulfonamide]
2.9 nM | 21 nM | 93 nM | Cc1cc2cc(C(=O)c3cnn(-c4ccc(Oc5ccccc5F)cc4C)c3N)[nH]c2cc1N1C(=O)NC2(CCN(Cc3ccccc3)C2)C1=O (stereo not drawn) [Example 5-1-394, 3-[2-[5-amino-1-[4-(2-fluorophenoxy)-2-methylphenyl]pyrazole-4-carbonyl]-5-methyl-1H-indol-6-yl]-7-benzyl-1,3,7-tnazaspiro[4.4] nonane-2,4-dione]
4.8 nM | 66 nM | 210 nM | Cc1cc(Oc2c(F)cccc2F)ncc1-n1ncc(C(=O)c2cc3cc(C4CC4)c(NS(=O)(=O)C4CCOCC4)cc3[nH]2)c1N [Example 5-1-395, N-[2-[5-amino-1-[6-(2,6-difluorophenoxy)-4-methylpyridin-3-yl]pyrazole-4-carbonyl]-5-cyclopropyl-1H-indol-6-yl]oxane-4-sulfonamide]
3.6 nM | 68 nM | 230 nM | Cc1cc(Oc2ccccc2F)ncc1-n1ncc(C(=O)c2cc3cc(C4CC4)c(NS(=O)(=O)C4CCOCC4)cc3[nH]2)c1N [Example 5-1-396, N-[2-[5-amino-1-[6-(2-fluorophenoxy)-4-methylpyridin-3-yl]pyrazole-4-carbonyl]-5-cyclopropyl-1H-indol-6-yl]oxane-4-sulfonamide]

Continued, molecule first:

Structure (SMILES) | IC50 [1] | IC50 [2] | IC50 [3]
Cc1cc(Oc2ccccc2F)ccc1-n1ncc(C(=O)c2cc3cc(F)c(N4C(=O)NC5(COC5)C4=O)cc3[nH]2)c1N [Example 5-1-376, 7-[2-[5-amino-1-[4-(2-fluorophenoxy)-2-methylphenyl]pyrazole-4-carbonyl]-5-fluoro-1H-indol-6-yl]-2-oxa-5,7-diazaspiro[3.4] octane-6,8-dione] | 1.4 nM | 4 nM | 14 nM
Cc1cc(Oc2ccccc2F)ncc1-n1ncc(C(=O)c2cc3cc(OCC(F)F)c(N4C(=O)NC(C)(C)C4=O)cc3[nH]2)c1N [Example 5-1-377, 3-[2-[5-amino-1-[6-(2-fluorophenoxy)-4-methylpyridin-3-yl]pyrazole-4-carbonyl]-5-(2,2-difluoroethoxy)-1H-indol-6-yl]-5,5-dimethylimidazolidine-2,4-dione] | 2 nM | 7.4 nM | 17 nM
Cc1cc(Oc2ccccc2F)ncc1-n1ncc(C(=O)c2cc3cc(F)c(NS(=O)(=O)C4CCOCC4)cc3[nH]2)c1N [Example 5-1-378, N-[2-[5-amino-1-[6-(2-fluorophenoxy)-4-methylpyridin-3-yl]pyrazole-4-carbonyl]-5-fluoro-1H-indol-6-yl]oxane-4-sulfonamide] | 2.8 nM | 37 nM | 63 nM
Cc1cc(Oc2ccccc2F)ncc1-n1ncc(C(=O)c2cc3cc(F)c(N4C(=O)NC(C)(C)C4=O)cc3[nH]2)c1N [Example 5-1-379, 3-[2-[5-amino-1-[6-(2-fluorophenoxy)-4-methylpyridin-3-yl]pyrazole-4-carbonyl]-5-fluoro-1H-indol-6-yl]-5,5-dimethylimidazolidine-2,4-dione] | 4.5 nM | 11 nM | 61 nM
Cc1cc(Oc2c(F)cccc2F)ncc1-n1ncc(C(=O)c2cc3cc(OC(F)F)c(NS(=O)(=O)C4CCOCC4)cc3[nH]2)c1N [Example 5-1-380, N-[2-[5-amino-1-[6-(2,6-difluorophenoxy)-4-methylpyridin-3-yl]pyrazole-4-carbonyl]-5-(difluoromethoxy)-1H-indol-6-yl]oxane-4-sulfonamide] | 6.3 nM | 110 nM | 95 nM
Cc1cc(Oc2c(F)cccc2F)ncc1-n1ncc(C(=O)c2cc3cc(OCC(F)F)c(NS(=O)(=O)c4cccc(C#N)c4)cc3[nH]2)c1N [Example 5-1-382, N-[2-[5-amino-1-[6-(2,6-difluorophenoxy)-4-methylpyridin-3-yl]pyrazole-4-carbonyl]-5-(2,2-difluoroethoxy)-1H-indol-6-yl]-3-cyanobenzenesulfonamide] | 2.5 nM | 31 nM | 260 nM
Cc1cc(-n2ncc(C(=O)c3cc4cc(OC5CCN(C6CCCC6)CC5)c(-c5ccccc5C(F)(F)F)cc4[nH]3)c2N)ccc1Oc1ccccc1F [Example 5-1-385, (5-amino-1-(4-(2-fluorophenoxy)-3-methylphenyl)-1H-pyrazol-4-yl)(5-((1-cyclopentylpiperidin-4-yl)oxy)-6-(2-(trifluoromethyl)phenyl)-1H-indol-2-yl)methanone] | 3 nM | 390 nM | 2400 nM
Cc1cc(Oc2c(F)cccc2F)ncc1-n1ncc(C(=O)c2cc3cc(OC4CCN(C5CCCC5)CC4)c(-c4ccccc4C(F)(F)F)cc3[nH]2)c1N [Example 5-1-387, [5-amino-1-[6-(2,6-difluorophenoxy)-4-methylpyridin-3-yl]pyrazol-4-yl]-[5-(1-cyclopentylpiperidin-4-yl)oxy-6-[2-(trifluoromethyl)phenyl]-1H-indol-2-yl] methanone] | 3.1 nM | 29 nM | 190 nM
Cc1cc(Oc2ccccc2F)ccc1-n1ncc(C(=O)c2cc3cc(OC(F)F)c(NS(=O)(=O)C4CCOCC4)cc3[nH]2)c1N [Example 5-1-390, N-[2-[5-amino-1-[4-(2-fluorophenoxy)-2-methylphenyl]pyrazole-4-carbonyl]-5-(difluoromethoxy)-1H-indol-6-yl]oxane-4-sulfonamie] | 1.9 nM | 25 nM | 44 nM
Cc1cc2cc(C(=O)c3cnn(-c4ccc(Oc5ccccc5F)cc4C)c3N)[nH]c2cc1N1C(=O)NC2(CCN(C3COC3)CC2)C1=O [Example 5-1-391, 3-(2-(5-amino-1-(4-(2-fluorophenoxy)-2-methylphenyl)-1H-pyrazole-4-carbonyl)-5-methyl-1H-indol-6-yl)-8-(oxetan-3-yl)-1,3,8-triazaspiro[4.5]decane-2,4-dione] | 1.3 nM | 5.5 nM | 11 nM
Cc1cc2cc(C(=O)c3cnn(-c4ccc(Oc5ccccc5F)cc4C)c3N)[nH]c2cc1N1C(=O)NC2(CCN(Cc3ccccc3)CC2)C1=O [Example 5-1-392, 3-[2-[5-amino-1-[4-(2-fluorophenoxy)-2-methylphenyl]pyrazole-4-carbonyl]-5-methyl-1H-indol-6-yl]-8-benzyl-1,3,8-triazaspiro[4.5] decane-2,4-dione] | 2.9 nM | 14 nM | 89 nM
Cc1cc2cc(C(=O)c3cnn(-c4ccc(Oc5ccccc5F)cc4C)c3N)[nH]c2cc1N1C(=O)NC2(CCN(C3COC3)C2)C1=O (stereo not drawn) [Example 5-1-393, 3-[2-[5-amino-1-[4-(2-fluorophenoxy)-2-methylphenyl]pyrazole-4-carbonyl]-5-methyl-1H-indol-6-yl]-7-(oxetan-3-yl)-1,3,7-triazaspiro [4.4]nonane-2,4-dione] | 1 nM | 4.6 nM | 9.8 nM
Cc1cc(Oc2ccccc2F)ccc1-n1ncc(C(=O)c2cc3cc(C4CC4)c(NS(=O)(=O)C4CCOCC4)cc3[nH]2)c1N [Example 5-1-397, N-[2-[5-amino-1-[4-(2-fluorophenoxy)-2-methylphenyl]pyrazole-4-carbonyl]-5-cyclopropyl-1H-indol-6-yl]oxane-4-sulfonamide] | 1.8 nM | 31 nM | 90 nM
